Data reported in patent US12590071B2, “Hydrazone derivative in which terminal amine group is substituted with aryl group or heteroaryl group, and use thereof” (KOREA INSTITUTE OF SCIENCE AND TECHNOLOGY, priority 2018, dated 2026).

How the values were obtained:
[1] = Liver microsomal stability (mouse); assay type: in vitro ADME; conditions: amount of substrate remaining; 1 μM, 0.25 mg/mL microsomes, 37° C., 30 minutes
In short: (§1)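 Compound at 1 μM with microsomes (0.25 mg/mL each species) in 0.1 M phosphate buffer pH 7.4, preincubated 5 min at 37 °C, then 30 min at 37 °C after NADPH-generating system addition. Quenched with acetonitrile plus internal standard; remaining substrate measured by LC-MS/MS.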

[2] = tested on: Tau-BiFC cells; assay: Cytotoxicity (cell survival rate) in tau-BiFC cells; conditions: group treated with Forskolin alone = 100%
In short: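 Tau-BiFC cells co-treated 48 h with Forskolin ([…]) and compound at 0.03–30 μM. BiFC fluorescence quantified by imaging, IC50 by nonlinear regression; cytotoxicity as Hoechst-stained nuclei count relative to Forskolin-only wells (100% survival).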

[3] = molecular target: T1, CYP2C9 (Homo sapiens, UniProt P11712); assay: Inhibition of CYP coenzyme activity in human liver microsomes; assay type: in vitro ADME; conditions: compound 10 PM (so in the source); human liver microsomes 0.25 mg/mL; substrate diclofenac; 15 minutes
T1 construct: human liver microsomes (0.25 mg/mL); from tissue; host or cells: human liver microsomes
In short: (§2)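 Human liver microsomes (0.25 mg/mL) in 0.1 M phosphate pH 7.4 with a substrate cocktail (phenacetin 50 μM, diclofenac 10 μM, S-mephenytoin 100 μM, dextromethorphan 5 μM, midazolam 2.5 μM) and compound at 0 or 10 μM. Preincubated 5 min at 37 °C, then 15 min with NADPH system. Metabolites quantified by LC-MS/MS (MRM).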

[4] = molecular target: T2, CYP2C19 (Homo sapiens, UniProt P33261); assay: as above; assay type: in vitro ADME; conditions: compound 10 PM (so in the source); human liver microsomes 0.25 mg/mL; substrate S-mephenytoin; 15 minutes
T2 construct: human liver microsomes (0.25 mg/mL); from tissue; host or cells: human liver microsomes
In short: as §2

[5] = molecular target: T3, CYP2D6 (Homo sapiens, UniProt P10635); assay: as above; assay type: in vitro ADME; conditions: compound 10 PM (so in the source); human liver microsomes 0.25 mg/mL; substrate dextromethorphan; 15 minutes
T3 construct: human liver microsomes (0.25 mg/mL); from tissue; host or cells: human liver microsomes
In short: as §2

[6] = Liver microsomal stability (human); assay type: in vitro ADME; conditions: amount of substrate remaining; 1 μM, 0.25 mg/mL microsomes, 37° C., 30 minutes
In short: as §1

[7] = Pharmacokinetics in SD rat (plasma PK parameters); assay type: in vivo; conditions: for AUCall / clearance / half-life / Cmax / Tmax: SD rat plasma; for F: SD rat, PO 10 mg/kg versus IV
Experimental: Specifically, an SD rat of 7 to 8 weeks of age (Core Tech, Hana Trading Co., Ltd.) having a body weight of about 250 g to 300 g was purchased, and was managed in a simple breeding room for small animals set to a temperature of 22° C.±2° C., a relative humidity of 50%±5%, a lighting time of 12 hours (light up at 8:00 A.M., turn off at 8:00 P.M.), and an illuminance of 150 lux to 300 lux. During the entire test period, feed was freely provided, RO water was freely provided, and fasting was performed for 16 hours before the oral administration of a drug. After preparing a drug under the conditions shown in Table 5 below, the drug was intravenously injected (IV) or orally administered (PO). 500 µL of transfused blood was collected in a tube containing sodium heparin and centrifuged at 2° C. to 8° C. at 8,000 rpm for 6 minutes to obtain plasma from the blood. The obtained plasma was added to 180 μL of acetonitrile containing internal standard materials, vortexed, and then centrifuged at 15,000 rpm at 4° C. for 5 minutes to obtain a supernatant. The obtained supernatant was analyzed by LC-MS/MS.
Specific PK parameters were acquired using the Phoenix WinNonlin version 6.4 program (Phersight, USA) and wore calculated with a non-compartmental analysis model.

T3 sequence (P10635 whole entry): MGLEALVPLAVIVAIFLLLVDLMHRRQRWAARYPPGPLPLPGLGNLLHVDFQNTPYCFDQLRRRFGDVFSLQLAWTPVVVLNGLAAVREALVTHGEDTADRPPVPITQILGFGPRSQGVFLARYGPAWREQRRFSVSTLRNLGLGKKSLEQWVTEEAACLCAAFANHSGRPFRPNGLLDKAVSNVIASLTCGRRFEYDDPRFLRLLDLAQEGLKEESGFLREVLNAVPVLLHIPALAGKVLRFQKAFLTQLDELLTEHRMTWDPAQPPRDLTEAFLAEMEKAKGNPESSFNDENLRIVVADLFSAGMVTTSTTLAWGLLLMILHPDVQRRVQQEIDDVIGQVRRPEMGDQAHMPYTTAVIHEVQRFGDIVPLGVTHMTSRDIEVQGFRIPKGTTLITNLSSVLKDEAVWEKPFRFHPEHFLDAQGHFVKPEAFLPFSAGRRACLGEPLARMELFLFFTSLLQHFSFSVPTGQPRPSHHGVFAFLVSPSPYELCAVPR
T2 sequence (P33261 whole entry): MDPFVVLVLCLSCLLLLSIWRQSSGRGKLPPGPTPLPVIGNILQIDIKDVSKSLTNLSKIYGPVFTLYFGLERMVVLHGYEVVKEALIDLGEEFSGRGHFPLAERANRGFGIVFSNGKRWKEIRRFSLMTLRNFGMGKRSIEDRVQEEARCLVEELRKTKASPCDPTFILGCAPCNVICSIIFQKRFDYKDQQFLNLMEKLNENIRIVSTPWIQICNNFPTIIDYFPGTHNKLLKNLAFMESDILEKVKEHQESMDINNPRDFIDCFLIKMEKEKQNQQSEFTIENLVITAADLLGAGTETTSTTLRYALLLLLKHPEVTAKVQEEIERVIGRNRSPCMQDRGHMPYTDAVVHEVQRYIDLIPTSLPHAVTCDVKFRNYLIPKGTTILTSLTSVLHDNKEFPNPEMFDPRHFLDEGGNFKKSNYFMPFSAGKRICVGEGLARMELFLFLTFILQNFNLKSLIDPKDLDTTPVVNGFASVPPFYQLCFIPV
T1 sequence (P11712 whole entry): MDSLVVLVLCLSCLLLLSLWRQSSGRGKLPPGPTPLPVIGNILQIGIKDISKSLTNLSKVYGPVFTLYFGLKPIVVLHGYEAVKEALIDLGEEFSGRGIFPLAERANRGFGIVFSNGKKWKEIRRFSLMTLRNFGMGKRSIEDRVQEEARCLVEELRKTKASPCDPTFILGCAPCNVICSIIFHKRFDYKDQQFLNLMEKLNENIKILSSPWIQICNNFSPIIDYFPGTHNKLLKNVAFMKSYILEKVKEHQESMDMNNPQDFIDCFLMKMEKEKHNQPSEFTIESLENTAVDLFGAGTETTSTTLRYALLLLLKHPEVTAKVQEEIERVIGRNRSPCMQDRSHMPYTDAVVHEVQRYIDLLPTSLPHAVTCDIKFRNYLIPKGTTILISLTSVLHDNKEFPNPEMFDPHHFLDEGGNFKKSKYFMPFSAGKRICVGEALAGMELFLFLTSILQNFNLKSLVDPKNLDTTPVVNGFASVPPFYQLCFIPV

For `N#CC(C#N)=NNc1ccc(-c2cnc3ccnn3c2)cc1` [Compound 50, (4-(pyrazolo[1,5-a]pyrimidin-6-yl)phenyl)carbonohydrazonoyl dicyanide], which “liver microsomal stability, Mouse (%)” value [1] is on record?
The value was 89.5%.

What about the “Cell survival rate (% @ 10 μM)” value [2] of the same compound?
The value was 76%.

What about the “inhibition effects of CYP coenzyme activity, CYP2C9” value (from here on “inhibition effects … CYP2C9”) [3] of the same compound?
Its value is 73.

What about the “inhibition effects of CYP coenzyme activity, CYP2C19” value (shortened to “inhibition effects … CYP2C19”) [4] of the same compound?
Its value is 83.8.

What about the “inhibition effects of CYP coenzyme activity, CYP2D6” value (“inhibition effects … CYP2D6” for short) [5] of the same compound?
The value was greater than 100.

And the “liver microsomal stability, Human (%)” value [6]?
The value was 81.1%.

And the AUCall ([7]; IV 1 mg/kg)?
Its AUCall is 8149.7 ± 1421.0 hr, ng/mL.

What about the clearance ([7]; IV 1 mg/kg) of the same compound?
The clearance was 2 ± 0.3 mL/min/kg.

What about the half-life ([7]; IV 1 mg/kg) of the same compound?
The half-life was 1.9 ± 0.3 h.

What about the AUCall ([7]; PO 10 mg/kg) of the same compound?
Its AUCall is 6726.6 ± 2700.2 hr, ng/mL.

What about the Cmax ([7]; PO 10 mg/kg) of the same compound?
Its Cmax is 1330 ± 788 ng/mL.

And the Tmax ([7]; PO 10 mg/kg)?
The Tmax was 5 ± 2 h.

What about the F [7] of the same compound?
The F was 8.3%.

With `N#CC(C#N)=NNc1ccc(-c2ncc(F)cn2)cc1` [Compound 2, (4-(5-fluoropyrimidin-2-yl)phenyl)carbonohydrazonoyl dicyanide] as the compound, how does the “liver microsomal stability, Mouse (%)” value [1] read?
Its value is 6.4%.

And the “Cell survival rate (% @ 10 μM)” value [2]?
The value was 59%.

And the “inhibition effects … CYP2C9” value [3]?
The value was 57.7.

And the “inhibition effects … CYP2C19” value [4]?
Its value is 88.8.

And the “inhibition effects … CYP2D6” value [5]?
Its value is 74.3.

And the “liver microsomal stability, Human (%)” value [6]?
Its value is 92.7%.

And the AUCall ([7]; IV 1 mg/kg)?
The AUCall was 7335.6 ± 1794.1 hr, ng/mL.

What about the Cmax ([7]; IV 1 mg/kg) of the same compound?
The Cmax was 4280 ± 1390 ng/mL.

And the Tmax ([7]; IV 1 mg/kg)?
Its Tmax is 5.5 ± 1 h.

And the clearance ([7]; IV 1 mg/kg)?
The clearance was 2.4 ± 0.7 mL/min/kg.

What about the half-life ([7]; IV 1 mg/kg) of the same compound?
Its half-life is 1.2 ± 0.3 h.

What about the AUCall ([7]; PO 10 mg/kg) of the same compound?
The AUCall was 19890.5 ± 6049.3 hr, ng/mL.

What about the F [7] of the same compound?
The F was 27.1%.

For `N#CC(C#N)=NNc1ccc(-c2ncccn2)cc1` [Compound 1, (4-(pyrimidin-2-yl)phenyl)carbonohydrazonoyl dicyanide], which “liver microsomal stability, Mouse (%)” value [1] is on record?
Its value is 86.1%.

And the “Cell survival rate (% @ 10 μM)” value [2]?
Its value is 74%.

And the “inhibition effects … CYP2C9” value [3]?
The value was 63.2.

And the “inhibition effects … CYP2C19” value [4]?
Its value is 90.7.

What about the “inhibition effects … CYP2D6” value [5] of the same compound?
The value was 98.4.

What about the “liver microsomal stability, Human (%)” value [6] of the same compound?
Its value is 44.1%.

And the AUCall ([7]; IV 1 mg/kg)?
The AUCall was 7260.0 ± 580.1 hr, ng/mL.

What about the clearance ([7]; IV 1 mg/kg) of the same compound?
Its clearance is 11.5 ± 0.9 mL/min/kg.

And the half-life ([7]; IV 1 mg/kg)?
The half-life was 1.1 ± 1 h.

And the AUCall ([7]; PO 10 mg/kg)?
The AUCall was 4652.8 ± 1158.9 hr, ng/mL.

And the Cmax ([7]; PO 10 mg/kg)?
The Cmax was 1840 ± 609 ng/mL.

And the Tmax ([7]; PO 10 mg/kg)?
Its Tmax is 1.7 ± 2.9 h.

And the half-life ([7]; PO 10 mg/kg)?
The half-life was 1.6 ± 1.6 h.

And the F [7]?
Its F is 32%.

With `Cc1ncc(-c2ccc(NN=C(C#N)C#N)cc2)s1` [Compound 11, (4-(2-methylthiazol-5-yl)phenyl)carbonohydrazonoyl dicyanide] as the compound, how does the “liver microsomal stability, Mouse (%)” value [1] read?
Its value is 65.6%.

What about the “Cell survival rate (% @ 10 μM)” value [2] of the same compound?
Its value is 146.2%.

What about the “inhibition effects … CYP2C9” value [3] of the same compound?
Its value is 33.2.

And the “inhibition effects … CYP2C19” value [4]?
The value was 83.4.

What about the “inhibition effects … CYP2D6” value [5] of the same compound?
The value was 81.9.

And the “liver microsomal stability, Human (%)” value [6]?
Its value is 87.5%.

What about the AUCall ([7]; IV 2 mg/kg) of the same compound?
Its AUCall is 11800.37 hr, ng/mL.

What about the Cmax ([7]; IV 2 mg/kg) of the same compound?
The Cmax was 10700 ng/mL.

What about the Tmax ([7]; IV 2 mg/kg) of the same compound?
Its Tmax is 0.08 h.

And the clearance ([7]; IV 2 mg/kg)?
Its clearance is 2.84 mL/min/kg.

And the half-life ([7]; IV 2 mg/kg)?
Its half-life is 1.05 h.

And the AUCall ([7]; PO 10 mg/kg)?
Its AUCall is 19169.2 hr, ng/mL.

What about the Cmax ([7]; PO 10 mg/kg) of the same compound?
The Cmax was 6900 ng/mL.

And the Tmax ([7]; PO 10 mg/kg)?
Its Tmax is 0.25 h.

What about the half-life ([7]; PO 10 mg/kg) of the same compound?
Its half-life is 2.96 h.

And the F [7]?
Its F is 32.5%.

What does the source list for `Cc1cnc(C(=O)Nc2nc3ccc(NN=C(C#N)C#N)cc3s2)cn1` [Compound 93, (2-(5-methylpyrazine-2-carboxamido)benzo[d]thiazol-6-yl)carbonohydrazonoyl dicyanide]?
liver microsomal stability, Mouse (%) [1]: 37.3%; Cell survival rate (% @ 10 μM) [2]: 129.2%; inhibition effects of CYP coenzyme activity, CYP2C9 [3]: 45.5; inhibition effects of CYP coenzyme activity, CYP2C19 [4]: 91.6; inhibition effects of CYP coenzyme activity, CYP2D6 [5]: 85.6; liver microsomal stability, Human (%) [6]: 83.9%; AUCall ([7]; IV 1 mg/kg): 6059.4 ± 548.0 hr, ng/mL; clearance ([7]; IV 1 mg/kg): 2.7 ± 0.3 mL/min/kg; half-life ([7]; IV 1 mg/kg): 1.7 ± 0.1 h; AUCall ([7]; PO 10 mg/kg): 13884.8 ± 3420.9 hr, ng/mL; Cmax ([7]; PO 10 mg/kg): 2570 ± 423 ng/mL; Tmax ([7]; PO 10 mg/kg): 5 ± 1.2 h; F [7]: 22.9%
